Data from ChEMBL document CHEMBL4819060, “Design, synthesis and assessment of new series of quinazolinone derivatives as EGFR inhibitors along with their cytotoxic evaluation against MCF7 and A549 cancer cell lines” (Bioorg Med Chem Lett, 2021).

Assays:
MCF7 [1] = test: cells; assay type: functional, cell-based; settings: Homo sapiens
Description: Cytotoxicity against human MCF7 cells incubated for 2 to 4 hrs by MTT assay

A549 = test: Cytotoxicity against human A549 cells incubated for 2 to 4 hrs by MTT assay; assay type: functional, cell-based
[2] = target: Epidermal growth factor receptor (Homo sapiens, UniProt P00533)
Epidermal growth factor receptor, sequence (P00533 whole entry): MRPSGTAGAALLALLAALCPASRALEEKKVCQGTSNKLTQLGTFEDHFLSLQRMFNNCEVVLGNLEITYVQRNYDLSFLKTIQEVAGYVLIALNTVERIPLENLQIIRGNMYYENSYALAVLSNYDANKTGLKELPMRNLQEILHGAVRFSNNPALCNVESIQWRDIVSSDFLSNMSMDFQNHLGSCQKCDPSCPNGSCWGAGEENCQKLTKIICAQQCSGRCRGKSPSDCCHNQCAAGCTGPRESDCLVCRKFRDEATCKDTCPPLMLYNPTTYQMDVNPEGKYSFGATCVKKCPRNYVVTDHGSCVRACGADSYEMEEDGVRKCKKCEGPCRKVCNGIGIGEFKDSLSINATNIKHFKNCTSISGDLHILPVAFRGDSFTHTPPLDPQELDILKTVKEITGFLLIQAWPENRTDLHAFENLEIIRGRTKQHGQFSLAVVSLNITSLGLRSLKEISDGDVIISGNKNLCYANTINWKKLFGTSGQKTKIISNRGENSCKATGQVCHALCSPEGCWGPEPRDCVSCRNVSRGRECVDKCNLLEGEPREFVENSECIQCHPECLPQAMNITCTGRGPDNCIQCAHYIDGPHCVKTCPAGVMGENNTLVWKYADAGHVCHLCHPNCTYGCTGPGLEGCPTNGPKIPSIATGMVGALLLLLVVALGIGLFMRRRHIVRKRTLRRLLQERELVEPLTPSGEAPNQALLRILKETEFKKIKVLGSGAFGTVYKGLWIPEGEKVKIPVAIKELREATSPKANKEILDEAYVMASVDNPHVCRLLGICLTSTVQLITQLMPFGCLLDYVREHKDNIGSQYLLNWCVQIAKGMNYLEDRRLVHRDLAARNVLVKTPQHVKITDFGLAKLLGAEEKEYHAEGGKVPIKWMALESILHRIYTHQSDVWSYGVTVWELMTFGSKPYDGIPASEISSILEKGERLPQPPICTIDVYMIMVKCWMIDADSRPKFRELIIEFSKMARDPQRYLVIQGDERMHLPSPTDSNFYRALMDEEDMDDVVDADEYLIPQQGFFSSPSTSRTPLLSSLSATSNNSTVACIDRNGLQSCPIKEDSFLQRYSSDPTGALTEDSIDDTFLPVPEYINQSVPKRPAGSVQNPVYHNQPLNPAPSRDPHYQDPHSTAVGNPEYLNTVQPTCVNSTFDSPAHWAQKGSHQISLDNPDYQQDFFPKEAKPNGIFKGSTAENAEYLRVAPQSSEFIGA
Description: Inhibition of EGFR (unknown origin)

cells = assay type: ADME, cell-based; settings: Homo sapiens, PCS-800-011
Description: Cytotoxicity against human PCS-800-011 cells

MCF7 [3] = test: Induction of apoptosis in human MCF7 cells assessed as necrotic cells measured after 24 hrs by Annexin V-FITC/propidium iodide staining based flow cytometry assay (reference value: 1.19%); assay type: functional
MCF7 [4] = test: Induction of cell cycle arrest in human MCF7 cells assessed as accumulation of cells at S phase at 4.05 uM after 24 hrs by propidium iodide staining-based flow cytometric analysis (reference value: 36.57%); assay type: functional
MCF7 [5] = test: Induction of apoptosis in human MCF7 cells assessed as late apoptotic cells measured after 24 hrs by Annexin V-FITC/propidium iodide staining based flow cytometry assay (reference value: 0.12%); assay type: functional
MCF7 [6] = test: Induction of cell cycle arrest in human MCF7 cells assessed as accumulation of cells at G0/G1 phase at 4.05 uM after 24 hrs by propidium iodide staining-based flow cytometric analysis (reference value: 52.94%); assay type: functional
MCF7 [7] = test: Induction of apoptosis in human MCF7 cells assessed as total apoptotic cells measured after 24 hrs by Annexin V-FITC/propidium iodide staining based flow cytometry assay (reference value: 1.63%); assay type: functional
MCF7 [8] = test: Induction of cell cycle arrest in human MCF7 cells assessed as accumulation of cells at Pre-G1 phase at 4.05 uM after 24 hrs by propidium iodide staining-based flow cytometric analysis (reference value: 1.63%); assay type: functional
MCF7 [9] = test: Induction of apoptosis in human MCF7 cells assessed as early apoptotic cells measured after 24 hrs by Annexin V-FITC/propidium iodide staining based flow cytometry assay (reference value: 0.32%); assay type: functional
MCF7 [10] = test: Induction of cell cycle arrest in human MCF7 cells assessed as accumulation of cells at G2/M phase at 4.05 uM after 24 hrs by propidium iodide staining-based flow cytometric analysis (reference value: 10.49%); assay type: functional
MCF7 [11] = test: Induction of cell cycle arrest in human MCF7 cells assessed as accumulation of cells at G0/G1 phase at 1.74 uM after 24 hrs by propidium iodide staining-based flow cytometric analysis (reference value: 52.94%); assay type: functional
MCF7 [12] = test: Induction of cell cycle arrest in human MCF7 cells assessed as accumulation of cells at Pre-G1 phase at 1.74 uM after 24 hrs by propidium iodide staining-based flow cytometric analysis (reference value: 1.63%); assay type: functional
MCF7 [13] = test: Induction of cell cycle arrest in human MCF7 cells assessed as accumulation of cells at S phase at 1.74 uM after 24 hrs by propidium iodide staining-based flow cytometric analysis (reference value: 36.57%); assay type: functional
MCF7 [14] = test: Induction of cell cycle arrest in human MCF7 cells assessed as accumulation of cells at G2/M phase at 1.74 uM after 24 hrs by propidium iodide staining-based flow cytometric analysis (reference value: 10.49%); assay type: functional

| Structure (SMILES) | IC50 (MCF7 [1]) [µM] | IC50 (A549) [µM] | IC50 [2] [µM] | IC50 (cells) [µM] | other results |
| --- | --- | --- | --- | --- | --- |
| O=C(CNc1ccccc1)Nn1c(-c2ccccc2)nc2ccccc2c1=O | 15.2 | 13.3 |  |  |  |
| O=C1N=C(Nn2c(-c3ccccc3)nc3ccccc3c2=O)S/C1=C/c1ccccc1 | 4.05 | 0.72 | 0.0656 | 44.3 | Activity (MCF7 [3]): 9.27%; Activity (MCF7 [4]): 27.88%; Activity (MCF7 [5]): 12.16%; Activity (MCF7 [6]): 42.95%; Activity (MCF7 [7]): 26.38%; Activity (MCF7 [8]): 26.38%; Activity (MCF7 [9]): 4.95%; Activity (MCF7 [10]): 29.17% |
| CN(C(=O)NCCCl)c1ccc2ncnc(Nc3cccc(Cl)c3)c2c1 |  |  | 0.081 |  |  |
| O=C1N=C(Nn2c(-c3ccccc3)nc3ccccc3c2=O)S/C1=C/c1ccc(Br)cc1 | 2.3 | 21.3 |  |  |  |
| O=C(CNc1ccc(Br)cc1)Nn1c(-c2ccccc2)nc2ccccc2c1=O | 15.1 | 25 |  |  |  |
| O=C(CNc1ccc(Cl)cc1Cl)Nn1c(-c2ccccc2)nc2ccccc2c1=O | 4.41 | 187 |  |  |  |
| COc1ccc(-c2coc3cc(OCC(=O)N/C=C\c4ccc(O)cc4)ccc3c2=O)cc1 |  |  | 0.0331 |  |  |
| CCc1ccc(NCC(=O)Nn2c(-c3ccccc3)nc3ccccc3c2=O)cc1 | 2.42 | 2.1 | 0.143 | 36.9 |  |
| COc1ccc(/C=C2/SC(Nn3c(-c4ccccc4)nc4ccccc4c3=O)=NC2=O)cc1 | 3.76 | 5.31 | 0.136 | 31.4 |  |
| O=C1N=C(Nn2c(-c3ccccc3)nc3ccccc3c2=O)S/C1=C/c1ccc(O)cc1O | 7.49 | 3.22 | 0.178 | 17.3 |  |
| O=C(CNc1ccc(Cl)cc1)Nn1c(-c2ccccc2)nc2ccccc2c1=O | 1.74 | 7.29 | 0.0811 | 51.2 | Activity (MCF7 [3]): 11.03%; Activity (MCF7 [5]): 23.65%; Activity (MCF7 [11]): 34.32%; Activity (MCF7 [12]): 37.24%; Activity (MCF7 [13]): 29.47%; Activity (MCF7 [7]): 37.24%; Activity (MCF7 [9]): 2.56%; Activity (MCF7 [14]): 36.21% |
| COc1ccc(/C=C2/SC(Nn3c(-c4ccccc4)nc4ccccc4c3=O)=NC2=O)cc1OC | 1 | 44.7 |  |  |  |
| CN(/N=N\c1ccc2ncnc(Nc3cccc(Cl)c3)c2c1)C(=O)OCCl |  |  | 0.00039 |  |  |
